What all share (assay): NCI anticancer screen, dose series, 48 h
The subject of assay [1] is HCT-15 colon.
For assay [2], the system named is TK-10 renal.
For assay [3], the system named is UO-31 renal.
Assay [4] deals with MOLT-4 leukemia.
Assay [5] relates to CCRF-CEM leukemia.
The test system of assay [6] is EKVX NSCLC.
The test system of assay [7] is SW-620 colon.
The subject of assay [8] is SNB-75 CNS.
Assay [9] has as its system SF-268 CNS.

“And” between values parts separate entries of the source, which are not always exact repeats. Equal values may be shown once.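 These data come from cells grown in 96-well plates and exposed to compound for 48 hours at five concentrations. GI50 = concentration required for 50% inhibition of growth. TGI: total growth inhibition.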

Consider `Cc1ccc(NC(=O)CC2C(=O)Nc3ccccc3S2(=O)=O)cc1C` (stereo not given), for which the TGI in [1], in assay [2], in [3], in assay [4], in assay [5] and in [6] was greater than 100 µM each time. Moreover, the TGI in assay [7] and in assay [8] was greater than 100 µM in each case.

In the case of `CCOc1cc[n+](C(=C=[N-])C#N)cc1`, the TGI in assay [9], in [1], in assay [2], in assay [3], in assay [4] and in [5] was greater than 100 µM in each case. The TGI in [6], in assay [7] and in [8] was greater than 100 µM each time.

`C/C(=N\NS(=O)(=O)c1ccccc1)c1ccc[n+]([O-])n1`: the TGI in assay [9] was greater than 100 µM; in assay [1], greater than 100 µM; in [3], greater than 100 µM; in assay [4], greater than 100 µM; in assay [5], 64.6 µM; in [6], greater than 100 µM. Moreover, the TGI in assay [7] and in assay [8] was greater than 100 µM in each case.

Consider `CCOc1ccccc1NC(=O)C(=O)c1c(O)c2ccc(O)cc2oc1=O`, for which the TGI in assay [9], in [1], in assay [2], in assay [3], in assay [4] and in [5] was greater than 100 µM each time. Further, the TGI in [6], in assay [7] and in [8] was greater than 100 µM in each case.

As for `C=C1CC(CC(=O)C(C)CC2CC(=C)C(=O)O2)OC1=O` (stereo not given), the TGI in assay [9] is 48.6 µM; in assay [1], 36.7 µM; in assay [2] it was 33.9 µM; in assay [3], greater than 100 µM; in [4], 29.7 µM; in assay [5], 26.8 µM. Also, the results for the TGI in [6], in [7] and in assay [8] were greater than 100 µM, 24.2 µM and greater than 100 µM, respectively.

As to `Cc1ccc(SSCCCCS(=O)O)cc1`, the TGI in assay [9] is 46.9 µM; in assay [1], 89.2 µM; in assay [2], 46.8 µM; in [3] it was 39.8 µM; in assay [4], greater than 100 µM; in assay [5] it was 62.5 µM. Further, the TGI in assay [6] was 55.6 µM; in [7], 38.5 µM; in [8], greater than 100 µM.

`CCCCCCC(=O)CC(=O)C(=O)Nc1ccccc1C`: the TGI was greater than 100 µM in assay [9]; greater than 66.3 µM in [1]; greater than 100 µM in assay [2]; greater than 100 µM in assay [3]; greater than 100 µM in assay [4]; greater than 100 µM in [5]. Also, the TGI in [6] is greater than 100 µM; in assay [7] it was greater than 59.4 µM; in assay [8] it was greater than 100 µM.

As to `Cc1c(C(=O)Nc2ccc(Cl)cc2)nc(N)nc1-c1cccc(Cl)c1`, the TGI in [9], in assay [3], in assay [4], in assay [5], in [6] and in [7] was greater than 100 µM in each case.

For `Nc1ncnc2c1ncn2COC/C=C/I`, the TGI in [9], in assay [2], in assay [3], in assay [4], in [5] and in assay [6] was greater than 100 µM throughout. Further, the TGI in assay [7] and in assay [8] was greater than 100 µM in each case.

`CC1=C(C(=O)NCc2ccccc2)C(c2ccccc2O)C(C(=O)NCc2ccccc2)=C(C)N1`: the TGI is 55.3 µM in assay [9]; 30.2 µM in [1]; 34 µM in assay [2]; 30.5 µM in [3]; greater than 100 µM in assay [4]; 82.9 µM in assay [5]. Also, the TGI in [6] was 45.6 µM; in [7], 32.3 µM; in [8], greater than 71.3 µM.

In the case of `CC(=O)Nc1ccccc1S(=O)c1ccccc1` (stereo not given), the TGI in assay [9], in [1], in assay [2], in assay [3], in assay [4] and in assay [5] was greater than 100 µM throughout. The TGI in [6], in assay [7] and in assay [8] was greater than 100 µM in each case.

`NNC(=O)N/N=C1/C(=O)N(c2ccc(Cl)c(Cl)c2)C(=O)C(=O)C1c1nc2ccccc2o1` (stereo not given): the TGI in [9], in assay [1], in assay [2], in assay [3], in assay [4] and in [5] was greater than 100 µM each time. For the same molecule, the TGI in [6], in [7] and in assay [8] was greater than 100 µM in each case.

In the case of `CCN(CC)c1ccc(N=C2C=CC(=C(C#N)C#N)c3ccccc32)c(C)c1`, the TGI in [1] came out at 10.2 µM; in [2] it was 9.58 µM; in assay [3], 6.95 µM; in [4], 9.63 µM; in assay [5], 6.1 µM; in assay [6], 18.4 µM. Besides, the TGI in assay [8] was found to be 5.69 µM.

On to `Cc1ccccc1NC(=O)CC(=O)n1nc(-c2ccccc2)c(N=Nc2ccc([N+](=O)[O-])cc2)c1-c1ccccc1`, for which the TGI in assay [9] was greater than 100 µM; in [2], greater than 100 µM; in assay [3], 34.8 µM; in assay [4] it was 64.8 µM; in assay [5] it was greater than 100 µM; in assay [6], 88.1 µM. Also, the TGI in assay [7] and in assay [8] was greater than 100 µM in each case.

With `COc1ccc(S(=O)(=O)N/N=C/CN2C(=O)c3ccccc3C2=O)cc1`, the TGI in assay [1], in [4], in [5], in assay [6], in [7] and in assay [8] was greater than 100 µM each time.

On to `NC(C(=O)O)c1ccc(C(=O)O)cc1` (stereo not given), for which the TGI in [9], in assay [1], in assay [2], in assay [3], in [4] and in assay [5] was greater than 100 µM in each case. The TGI in assay [6], in assay [7] and in assay [8] was greater than 100 µM throughout.

Regarding `CN(C)c1ccc(/C=c2\sc3nnc(Cc4ccccc4)n3c2=O)cc1`, the GI50 was greater than 10 µM in assay [9]; greater than 10 µM in assay [1]; greater than 100 µM in assay [2]; greater than 100 µM in assay [4]; greater than 100 µM in [5]; greater than 100 µM in assay [6]. Besides, the GI50 was greater than 10 µM in [7] and greater than 100 µM in assay [8]. For the same molecule, the TGI was > 10 µM and 57.8 µM in [9]; > 10 µM and 37.8 µM in [1]; greater than 100 µM in assay [2]; greater than 100 µM in assay [3]; greater than 100 µM in [4]; greater than 100 µM in assay [5]. In addition, the TGI in assay [6] was greater than 100 µM; in [7] it was > 10 µM and 29.2 µM; in assay [8], greater than 100 µM.

`COc1ccc([Se]c2ccc(OC)cc2)cc1`: the TGI is greater than 100 µM in assay [9]; greater than 100 µM in [1]; greater than 100 µM in [2]; 9.8 µM in assay [3]; greater than 100 µM in assay [4]; greater than 100 µM in assay [5]. Further, the TGI in assay [7] was greater than 100 µM; in [8], 96.8 µM.

In the case of `O=C(Nc1ccc(N2CCNCC2)cn1)c1[nH]ncc1Nc1ncnc2sc3c(c12)CCC3`, the GI50 was 1.77 µM in [2]; 1.58 µM in assay [3]; 2.54 µM in assay [4]; 1.99 µM in [6]; 0.476 µM in assay [7]; 1.6 µM in assay [8]. Further, the TGI in [2] was 3.36 µM; in assay [3] it was 3.71 µM; in assay [4] it was 19.8 µM; in [6], 5.77 µM; in assay [7] it was 2.05 µM; in assay [8], 4.04 µM.

As for `CCOC(=O)C1C(=O)c2cccc(OC)c2C2COC(=O)N12` (stereo not given), the TGI in assay [9], in [1], in assay [2], in assay [3], in assay [4] and in [5] was greater than 100 µM in each case. Further, the TGI in assay [6], in assay [7] and in assay [8] was greater than 100 µM in each case.

Take `C#Cc1ccccc1N1C(=O)C=CC1=O`: the TGI in assay [9], in assay [2], in assay [3], in [4], in assay [5] and in assay [6] was greater than 100 µM in each case. The TGI in assay [7] and in assay [8] was greater than 100 µM in each case.

For the molecule `CC(=O)N1CCN(C=S)CC1`, the TGI in assay [9], in assay [1], in assay [2], in assay [3], in [4] and in assay [5] was greater than 100 µM in each case. Besides, the TGI in assay [6], in assay [7] and in assay [8] was greater than 100 µM throughout.

For `C(=NCCN=Cc1cccc2ccccc12)c1cccc2ccccc12`, the TGI in [1], in assay [2], in assay [3], in assay [4], in [6] and in assay [7] was greater than 100 µM in each case. In assay [8], this molecule registered a TGI greater than 100 µM.

In the case of `NC(N)=NC(N)=NCc1ccco1`, the GI50 in [9] was greater than 1250 µM; in assay [1] it was greater than 1250 µM; in assay [2] it was greater than 1250 µM; in assay [3], greater than 1250 µM; in assay [4], greater than 1250 µM; in assay [6] it was 117 µM and 31.7 µM. In addition, the GI50 in assay [7] and in [8] was greater than 1250 µM throughout. In addition, the TGI in assay [9], in assay [1], in assay [2], in assay [3], in [4] and in [6] was greater than 1250 µM in each case. Besides, the TGI in assay [7] and in assay [8] was greater than 1250 µM each time.

Consider `CCCCCC/C(CC(=O)CCC(=O)NCCc1ccccc1)=N\NC(=O)c1ccc2ccccc2c1O`, for which the TGI was greater than 100 µM in assay [9]; greater than 100 µM in [2]; greater than 100 µM in assay [3]; 56.5 µM in assay [4]; 47.4 µM in assay [5]; greater than 100 µM in assay [6]. Besides, the TGI in assay [7] and in [8] was greater than 100 µM in each case.

On to `CCc1cccc(CC)c1NC(=O)C1=CNC(C)=C(C(=O)Nc2c(CC)cccc2CC)C1c1ccc(O)c(OC)c1` (stereo not given), for which the TGI was greater than 100 µM in assay [9]; greater than 100 µM in [2]; greater than 100 µM in [3]; 82.9 µM in assay [4]; 61 µM in [5]; greater than 100 µM in assay [6]. The TGI in assay [7] and in assay [8] was greater than 100 µM in each case.

`O=C(OCc1ccccc1)c1ccccc1-c1c2ccc(=O)cc-2oc2cc(OCc3ccccc3)ccc12`: the TGI is greater than 100 µM in assay [9]; 63.3 µM in assay [1]; 55.3 µM in assay [3]; 6.44 µM in assay [4]; 36.8 µM in assay [5]; greater than 100 µM in assay [6]. Also, the TGI in [7] was greater than 100 µM.

On to `OCC(O)C(OC1OC(CO)C(O)C(O)C1O)c1nn(-c2ccc(Cl)cc2)c2nc3cc(Cl)ccc3nc12` (stereo not given), for which the TGI in assay [9], in assay [1], in [2], in assay [3], in assay [4] and in [5] was greater than 100 µM each time. For the same molecule, the TGI in assay [6] and in [8] was greater than 100 µM in each case.

Turning to `ClCCCN1CCCCC1CCl` (stereo not given), the TGI in [9], in assay [1], in assay [2], in assay [3], in assay [4] and in assay [5] was greater than 100 µM each time. The TGI in [7] and in assay [8] was greater than 100 µM throughout.

Regarding `CC(=O)CC(=O)ON(C)C(=O)Cc1ccccc1`, the TGI in assay [9], in [1], in assay [2], in [3], in assay [4] and in [5] was greater than 100 µM in each case. Moreover, the TGI in assay [7] and in assay [8] was greater than 100 µM each time.

These data come from PubChem BioAssay (NCI).
